Entries after “also recorded” stand apart in the source; their conditions may differ.
What was measured:
[1] = Aqueous solubility of trametinib in the presence of various solubilizers (FIG. 1); type: physicochemical
Excerpt: FIG. 1 depicts the aqueous solubility of trametinib in the presence of various solubilizers.
As used herein, “solubilizer” is a substance (liquid or solid) that helps to keep the drug uniformly dispersed and dissolved in solution. A solubilizer prevents recrystallization and precipitation of the dissolved drug out of solution. For use in the present invention, suitable solubilizers include, but are not limited to, hypromellose, polyvinylpyrrolidone, sulfobutylether B-cyclodextrin (Captisol) and hydroxypropyl B-cyclodextrin (Cavitron). A combination of solubilizers can also be used. […] Suitably, the amount of solubilizer in a formulation according to the invention will be selected from: about 30 to 95%; suitably about 50 to 80%; suitably about 65 to 75%; by weight of the final product. Suitably, the amount of solubilizer in a formulation according to the invention will be selected from: about 30%; suitably about 35%, suitably about 40%, suitably about 45%, suitably about 50%, suitably about 55%, suitably about 60%, suitably about 65%, suitably about 70%, suitably about 75%, suitably about 80%, suitably about 85%, suitably about 90%, and suitably about 95%, by weight of the final product.

[2] = Trametinib concentration profile as a function of time and Cavitron concentration (FIG. 2)
[3] = Solubility profile at 0.05 mg/mL using solubilizers as a function of time (FIG. 4); type: physicochemical; conditions: 30 days, 25° C. and 60% relative humidity
[4] = tested on: BRAF V600-mutation positive metastatic melanoma; conditions: subjects with BRAF V600-mutation positive metastatic melanoma, Phase III study; cited from earlier work
[5] = Exposure and absorption upon in vivo administration
Excerpt: Suitably the powder for oral solution (POS) of the current invention contain micronized Compound A where at least 90% of the particles of Compound A are from 1 to 20 microns, suitably from 2.2 to 10.5 microns, such formulations provide an acceptable exposure/absorption profile. Suitably the powder for oral solution (POS) of the current invention contains micronized Compound A where at least 50% of the particles of Compound A are from 1 to 6 microns, suitably from 1.5 to 4.3 microns, such formulations provide an acceptable exposure/absorption profile. Suitably the powder for oral solution (POS) of the current invention contains micronized Compound A where at least 10% of the particles of Compound A are from 0.01 to 3.0 microns, suitably from 0.77 to 1.3 microns, such formulations provide an acceptable exposure/absorption profile. Such formulations help provide safe and effective treatment.

[6] = Physical stability, photo-stability and relative solubility of the drug substance; type: physicochemical
Excerpt: Several additional challenges exist concerning the use of Compound A in a pediatric formulation.
The potential for unacceptable levels of photo-degradation is of particular importance since photo-catalyzed degradation products may be potentially toxic.

[7] = Effect of HPMC and solubilizers on aqueous solubility of trametinib (FIG. 3); type: physicochemical; conditions: HPMC present in a cavitron solution, initial 1 mg/mL

aqueous solubility ([1]; hypromellose and hydroxypropyl B-cyclodextrin combined) | aqueous solubility ([1]; in hydroxypropyl B-cyclodextrin (Cavitron) formulation) | aqueous solubility ([1]; in polyethylene glycol (PEG) solution) | aqueous solubility ([1]; in polyethylene glycol (PEG) solution, listed as Trametinib) | aqueous solubility ([1]; in propylene glycol solution) | aqueous solubility ([1]; in propylene glycol solution, listed as Trametinib) | trametinib concentration remaining in solution ([2]; Cavitron solutions, initial concentration 1 mg/mL, after five days) | exposure and absorption [5] | solubility relative to Compound A [6] | Structure (SMILES) | solubility and solution stability over time ([3]; captisol solution) | solubility and solution stability over time ([3]; cavitron solution) | anti-tumor activity [4] | physical stability of the solvate (desolvation) ([6]; high humidity or aqueous environment, handling and formulation) | photo-stability ([6]; light) | stability of solution (precipitation) [7] | precipitation out of solution ([2]; starting concentration ~0.05 mg/mL, conditions of FIG. 2)
good aqueous solubility | greatest solubility | very low aqueous solubility | generally not soluble | very low aqueous solubility | generally not soluble | 7-10 % of the initial concentration | poor exposure and absorption | – | CC(=O)Nc1cccc(-n2c(=O)n(C3CC3)c(=O)c3c(Nc4ccc(I)cc4F)n(C)c(=O)c(C)c32)c1 [Compound A, N-{3-[3-cyclopropyl-5-(2-fluoro-4-iodo-phenylamino)-6,8-dimethyl-2,4,7-trioxo-3,4,6,7-tetrahydro-2H-pyrido[4,3-d]pyrimidin-1-yl]phenyl}acetamide dimethyl sulfoxide solvate] | able to maintain the solubility and stabilize the solution for 30 days | able to maintain the solubility and stabilize the solution for 30 days | has shown anti-tumor activity | favors conversion from the dimethyl sulfoxide solvate to the de-solvated form; also recorded: can undergo desolvation | very sensitive to light; also recorded: can suffer from photo-instability | increases the stability of trametinib solution | –
– | – | – | – | – | – | – | – | much less soluble than Compound A | CC(=O)Nc1cccc(-n2c(=O)n(C3CC3)c(=O)c3c(Nc4ccc(I)cc4F)n(C)c(=O)c(C)c32)c1 [Compound B, N-{3-[3-cyclopropyl-5-(2-fluoro-4-iodo-phenylamino)-6,8-dimethyl-2,4,7-trioxo-3,4,6,7-tetrahydro-2H-pyrido[4,3-d]pyrimidin-1-yl]phenyl}acetamide] | – | – | – | – | – | – | no significant amount of the drug will precipitate out of solution
